These results are taken from patent publication US7507727B2, “Substituted quinobenzoxazine analogs and methods of using thereof” (Cylene Pharmaceuticals, Inc., priority 2003, dated 2009).

pIC50: −log10 of the molar value. Like-named read-outs stand apart in the source and are kept apart here.

For one assay, the system named is HeLa cells. In words: MTS cell proliferation and/or cytotoxicity assay. The format is cell-based, Human. Here is the method:
Cell culture. Human cervical epithelial cells (HeLa cells) were obtained from American Type Culture Collection (Manassas, Va.). Cells were grown in Eagle's minimum essential medium (MEM, Hyclone, Utah) supplemented with 2 mM Glutamine, 0.1 mM nonessential amino acid, 1 mM Na Pyruvate, 1.5 g/L NaHCO3, 50 mg/L gentamicin, and 10% fetal bovine serum (Hyclone, USA) in a humidified atmosphere of 5% CO2 at 37° C.
MTS assays. Antiproliferative effects of the compounds were tested by the CellTiter 96 AQueous assay (Promega, WI), which is a calorimetric assay for determining the number of viable cells. (See, e.g., Wang, L., et al., Methods Cell Sci (1996) 18:249-255). In one example, cells (4,500 cells/well) were seeded on 96 well flat bottom plates (Corning, N.Y.) in 100 μl of culture medium without any anticancer drug on day 0, and the culture medium was exchanged for that //contained anticancer drugs at various concentrations on day 1. After incubation for 3 days under normal growth conditions (on day 4), the monolayers were washed once in PBS, and the medium was switched to 100 μl of PBS in each of the 96 well plate. After mixing MTS and PMS at the ratio of 20:1, 20 μl of MTS/PMS solution was added to each of the 96 well plate and incubated for 4 hours in a humidified atmosphere of 5% CO2 at 37° C. The absorbance was read at 490 nm using FLUOstar Galaxy 96 well plate reader (BMG Labtechnologies, Germany). μM concentrations (MTS data) reported in Table 1 are concentrations at which 50% of antiproliferative cell response is seen.

The target of assay [1] is c-Myc template DNA (c-myc quadruplex). In words: Quadruplex binding / stop assay (Taq polymerase arrest, capillary electrophoresis). To be noted: for IC50: read-out: Stop Data c-Myc μM, concentration at which 50% of the DNA was arrested (arrested:full-length 1:1); for pIC50: read-out: S DATA, Table 1D, stop assay data.
Setting [2] is: Homo sapiens, HeLa, 72 h, concentration at which 50% of antiproliferative cell response is seen, 3 days incubation, read-out: MTS Data Hella.
Setting [3] is: Homo sapiens, HeLa, HeLa cells, MTS, read-out: Hela MTS.

Consider `CN(C)CCCCNc1c(F)cc2c(=O)c(C(=O)NCCC3CCCN3C)cn3c2c1Oc1c-3ccc2ccccc12` (stereo not shown) [compound 496], for which the pIC50 in the assay on HeLa cells (setting [2]) is 5.40. For the same compound, the IC50 in assay [1] was found to be 0.41 µM.
Consider `O=C(NCCN1CCCC1)c1cn2c3c(c(N4CCC(c5cnccn5)C4)c(F)cc3c1=O)Oc1ccc(Cl)cc1-2` (stereo not shown) [compound 1795], for which the figures for the pIC50 (with HeLa cells (setting [3]); in assay [1]) were 6.30 and 5.54, respectively.
Consider `CN1CCCC1CCNC(=O)c1cn2c3cc4c(cc3oc3c(NCCN5CCCC5)c(F)cc(c1=O)c32)c(=O)c1ccccc14` (stereo not shown) [compound 575], for which the pIC50 in the assay with HeLa cells (setting [2]) was 5.68. Moreover, in assay [1], the IC50 amounted to 0.18 µM.
For the compound `CC(=O)N[C@@H]1CCC(c2c(F)cc3c(=O)c(C(=O)NCCN4CCCC4)cn4c3c2Oc2cc3c(cc2-4)oc2ccccc23)C1` (stereo partly shown) [compound 370], in the assay on HeLa cells (setting [2]), the pIC50 is 5.46. Moreover, in assay [1], the IC50 turned out to be 0.75 µM.
On to `N=C(N)NCC1CCCC(CNC(=O)c2cn3c4c(c(N5CCC(N)C5)c(F)cc4c2=O)Oc2cc4ccccc4cc2-3)C1` (stereo not shown) [compound 1649], for which the pIC50 in the assay on HeLa cells (setting [3]) was 5.66; in assay [1] it was 6.43.
As for `CN1CCCC1CCNc1c(F)cc2c(=O)c(C(=O)NCCCN3CCOCC3)cn3c4cc5c(cc4oc1c23)c(=O)c1ccccc15` (stereo not shown) [compound 523], the pIC50 in the assay with HeLa cells (setting [2]) is 5.80. In assay [1], the IC50 is 0.375 µM.
In the case of `CN1CCCC1CCNC(=O)c1cn2c3c(c(NC[C@@H]4CCCO4)c(F)cc3c1=O)Oc1cc3ccccc3cc1-2` (stereo partly shown) [compound 33], the pIC50 with HeLa cells (concentration at which 50% of antiproliferative cell response is seen, 3 days incubation, read-out: MTS Data Hella) is 6.54. Moreover, the IC50 in assay [1] came to 3 µM.
For the compound `CN1CCCC1CCNC(=O)c1cn2c3c(c(N4CCC(N)C4)c(F)cc3c1=O)Nc1cc3ccccc3cc1-2` (stereo not shown) [compound 1645], the pIC50 in the assay on HeLa cells (setting [3]) was 5.48; in assay [1], 6.21.
As to `N[C@H]1CCN(c2c(F)cc3c(=O)c(C(=O)NCCCN4CCOCC4)cn4c5cc6c(cc5oc2c34)c(=O)c2ccccc26)C1` [compound 511], the pIC50 in the assay on HeLa cells (setting [2]) was 5.51. In addition, in assay [1], the IC50 was found to be 0.375 µM.
For `O=C(NCCCN1CCOCC1)c1cn2c3c(c(N4CC5CCCNC5C4)c(F)cc3c1=O)Oc1cc3ccccc3cc1-2` (stereo not shown) [compound 547], in that order: 7.00 and 0.375 µM.
Taken in the same sequence, the figures for `N[C@H]1CCN(c2c(F)cc3c(=O)c(C(=O)NCCN4CCCC4)cn4c3c2Oc2ccccc2-4)C1` [compound 109] were 6.51 and 1.75 µM.
As to `CN(C)CCCCNC(=O)c1cn2c3c(c(N4CC5CCCNC5C4)c(F)cc3c1=O)Oc1cc3ccccc3cc1-2` (stereo not shown) [compound 1639], the results for the pIC50 (with HeLa cells (setting [3]); in assay [1]) were 7.00 and 6.43, respectively.
Consider `CN1CCCC1CCNC(=O)c1cn2c3c(c(N4CCC(NC(=O)OC(C)(C)C)C4)c(F)cc3c1=O)Oc1cc3c(cc1-2)oc1ccccc13` (stereo not shown) [compound 389], for which the pIC50 in the assay with HeLa cells (setting [2]) is 6.54. Also, the IC50 in assay [1] was determined as 0.75 µM.
For `CN1CCN(CCCNC(=O)c2cn3c4cc5c(cc4oc4c(NCCN6CCCC6)c(F)cc(c2=O)c43)c(=O)c2ccccc25)CC1` [compound 524], in that order: 5.82 and 0.375 µM.
With `CN1CCCC1CCNc1c(F)cc2c(=O)c(C(=O)NCCN3CCCC3)cn3c4cc5oc6cc([N+](=O)[O-])ccc6[nH]c5cc4oc1c23` (stereo not shown) [compound 571], the pIC50 in the assay with HeLa cells (setting [2]) is 5.32. In addition, in assay [1], the IC50 was 0.18 µM.
For the compound `O=C(CN1CCCCC1)N[C@@H]1CCN(c2c(F)cc3c(=O)c(C(=O)NCCN4CCCC4)cn4c3c2Oc2cc3c(cc2-4)oc2ccccc23)C1` [compound 482], the pIC50 in the assay on HeLa cells (setting [2]) is 5.47. Moreover, the IC50 in assay [1] came out at 0.5 µM.
For the compound `O=C(NCCCn1ccnc1)c1cn2c3c(c(NCCN4CCCC4)c(F)cc3c1=O)Oc1cc3c(cc1-2)oc1ccccc13` [compound 368], the pIC50 in the assay with HeLa cells (setting [2]) was 5.44. In assay [1], the IC50 amounted to 0.75 µM.
Taken in the same sequence, the figures for `CN1CCN(CCCNC(=O)c2cn3c4c(c(N5CC[C@@H](NC(=O)CCN6CCCCC6)C5)c(F)cc4c2=O)Oc2cc4c(cc2-3)oc2ccccc24)CC1` [compound 508] were 5.49 and 0.375 µM.
Taken in the same sequence, the figures for `CN1CCCC1CCNC(=O)c1cn2c3c(c(NCCN4CCCC4)c(F)cc3c1=O)Oc1cc3c(cc1-2)oc1ccccc13` (stereo not shown) [compound 306] were 5.49 and 1 µM.
For `NCCCCNC(=O)c1cn2c3c(c(N4CC[C@@H](N)C4)c(F)cc3c1=O)Oc1cc3ccccc3cc1-2` [compound 528], in that order: 6.12 and 0.375 µM.
In the case of `O=C(CCN1CCCC1)N[C@@H]1CCN(c2c(F)cc3c(=O)c(C(=O)NCCN4CCCC4)cn4c3c2Oc2cc3c(cc2-4)oc2ccccc23)C1` [compound 376], the pIC50 in the assay with HeLa cells (setting [2]) was 5.62. Also, the IC50 in assay [1] stood at 0.75 µM.
For the compound `CN1CCCC1CCNC(=O)c1cn2c3c(c(NCC(O)c4ccccc4)c(F)cc3c1=O)Oc1cc3ccccc3cc1-2` (stereo not shown) [compound 1676], the values for the pIC50 (in the assay on HeLa cells (setting [3]); in assay [1]) were 6.72 and 6.12, respectively.
For `CC(C)NCCCNC(=O)c1cn2c3c(c(N4CCC(NC(=O)OC(C)(C)C)C4)c(F)cc3c1=O)Oc1cc3ccccc3cc1-2` (stereo not shown) [compound 312], the pIC50 in the assay with HeLa cells (setting [2]) was 5.72. The IC50 in assay [1] is 1 µM.
As for `O=C(NCCN1CCCC1)c1cn2c3cc4c(cc3oc3c(N5CC6CCCNC6C5)c(F)cc(c1=O)c32)c(=O)c1ccccc14` (stereo not shown) [compound 1726], the pIC50 in the assay on HeLa cells (setting [3]) is 5.59; in assay [1] it was 6.90.
Consider `CN1CCC(Nc2c(F)cc3c(=O)c(C(=O)NCCC4CCCN4C)cn4c3c2Oc2cc3ccccc3cc2-4)CC1` (stereo not shown) [compound 388], for which the pIC50 with HeLa cells (setting [2]) is 6.51. Besides, the IC50 in assay [1] was determined as 0.75 µM.
For `CCN(CC)CCCC(C)NC(=O)c1cn2c3c(c(N4CC5CCCNC5C4)c(F)cc3c1=O)Oc1cc3ccccc3cc1-2` (stereo not shown) [compound 1727], the pIC50 with HeLa cells (setting [3]) is 6.44; in assay [1] it was 6.12.
As to `O=C(NCCN1CCCC1)c1cn2c3c(c(N4CCC(c5cnccn5)C4)c(F)cc3c1=O)Oc1ccccc1-2` (stereo not shown) [compound 32], in the assay with HeLa cells (setting [2]), the pIC50 is 6.22. Moreover, the IC50 in assay [1] worked out at 3 µM.
For `CN1CCCC1CCNC(=O)c1cn2c3c(c(NCCc4c[nH]cn4)c(F)cc3c1=O)Oc1cc3ccccc3cc1-2` (stereo not shown) [compound 1468], in that order: 6.46 and 0.375 µM.
Regarding `CCN(CC)CCCC(C)NC(=O)c1cn2c3c(c(N4CC5CCCNC5C4)c(F)cc3c1=O)Oc1cc3ccccc3cc1-2` (stereo not shown) [compound 385], the pIC50 in the assay with HeLa cells (setting [2]) was 6.44. The IC50 in assay [1] was determined as 0.75 µM.
Take `CN(C)C1CCN(c2c(F)cc3c(=O)c(C(=O)NCCC4CCCN4C)cn4c3c2Oc2cc3ccccc3cc2-4)C1` (stereo not shown) [compound 104]: in the assay on HeLa cells (setting [2]), the pIC50 is 5.55. In addition, in assay [1], the IC50 turned out to be 1.75 µM.
Take `O=C(NCCN1CCOCC1)c1cn2c3c(c(N4CC5CCCNC5C4)c(F)cc3c1=O)Oc1cc3ccccc3cc1-2` (stereo not shown) [compound 1640]: the pIC50 with HeLa cells (setting [3]) is 7.52; in assay [1] it was 6.60.
Consider `CN1CCCC1CCNC(=O)c1cn2c3cc4oc5cc([N+](=O)[O-])ccc5[nH]c4cc3oc3c(NCCC4CCCN4C)c(F)cc(c1=O)c32` (stereo not shown) [compound 572], for which the pIC50 in the assay on HeLa cells (setting [2]) is 5.32. In addition, the IC50 in assay [1] was 0.18 µM.
Taken in the same sequence, the figures for `N[C@@H]1CCN(c2c(F)cc3c(=O)c(C(=O)NCCC4CCCN4)cn4c3c2Oc2cc3c(cc2-4)oc2ccccc23)C1` (stereo partly shown) [compound 563] were 6.51 and 0.25 µM.
Taken in the same sequence, the figures for `CC(C)NCCCNC(=O)c1cn2c3c(c(N4CCC(N)C4)c(F)cc3c1=O)Oc1cc3ccccc3cc1-2` (stereo not shown) [compound 541] were 6.57 and 0.375 µM.
Taken in the same sequence, the figures for `CN1CCCC1CCNC(=O)c1cn2c3c(c(N4CC5CCCNC5C4)c(F)cc3c1=O)Oc1cc3ccccc3cc1-2` (stereo not shown) [compound 546] were 7.00 and 0.375 µM.
`CN1CCCC1CCNC(=O)c1cn2c3c(c(N4CCC(N)C4)ccc3c1=O)Oc1cc3ccccc3cc1-2` (stereo not shown) [compound 529]: in the assay on HeLa cells (setting [2]), the pIC50 is 6.12. The IC50 in assay [1] worked out at 0.375 µM.
Consider `N=C(N)NCCNC(=O)c1cn2c3c(c(N4CC5CCCNC5C4)c(F)cc3c1=O)Oc1cc3ccccc3cc1-2` (stereo not shown) [compound 1646], for which the pIC50 with HeLa cells (setting [3]) is 6.40; in assay [1], 6.19.
With `CN1CCCC1CCNC(=O)c1cn2c3c(c(N4CC[C@H](N)C4)c(F)cc3c1=O)Oc1cc3ccccc3cc1-2` (stereo partly shown) [compound 474], the pIC50 in the assay with HeLa cells (setting [2]) is 6.43. Moreover, the IC50 in assay [1] was determined as 0.58 µM.
As to `CN(C)CC(C)(C)CNC(=O)c1cn2c3c(c(N4CCC(N)C4)c(F)cc3c1=O)Oc1cc3ccccc3cc1-2` (stereo not shown) [compound 329], in assay [1], the IC50 turned out to be 1 µM.
On to `CN1CCCC1CCNC(=O)c1cn2c3c(c(NCCCN4CCOCC4)ccc3c1=O)Oc1cc3ccccc3cc1-2` (stereo not shown) [compound 1529], for which the pIC50 in assay [1] was 5.76.
As for `CN(C)CCCCNc1c(F)cc2c(=O)c(C(=O)NCCCN3CCOCC3)cn3c4cc5oc6cc([N+](=O)[O-])ccc6[nH]c5cc4oc1c23` [compound 556], the IC50 in assay [1] is 0.375 µM.
